Measured values taken from US20260130932A1, “NOVEL COMBINATION OF RIFAXIMIN AND CLARITHROMYCIN FOR TREATING MULTIDRUG-RESISTANT MYCOBACTERIUM ABSCESSUS” (priority 2022, published 2026).
“And” between values parts separate entries of the source, which are not always exact repeats. Equal values may be shown once. Where a name gives a salt, the structure may show the parent alone.

Assays:
M. abscessus strain M422 = experiment: Single-concentration assay with and without clarithromycin (hit validation); type: cell-based, Mycobacterium abscessus; settings: for % inhibition with 0.5 μg/ml Clr: compound combined with clarithromycin; for % inhibition with compound alone: without clarithromycin
Description: (§1) For checkerboard synergy assay, 3 M. abscessus strains were used: M. abscessus ATCC 19977, M. abscessus strains M422 and M110, while bactericidal activity determination and the zebrafish study were performed with M. abscessus ATCC 19977. All three strains of M. abscessus harbor the inducible clarithromycin resistance-conferring erm(41) T28 sequevar. M. abscessus strain M422 and M110 were provided by Dr. Jeanette Teo, National University Hospital, Singapore (Chew K L, et al., 2017. J Med Microbiol 66: 1443-1447). M. abscessus ATCC 19977 and M. avium ATCC 700898 were acquired from American Type Culture Collection (ATCC).
Primary screening was carried out in 96-well flat-bottom Corning Costar cell culture plates at 50 μM compound along with 4 μg/ml of Clr in a starting inoculum of pre-induced M. abscessus cells at OD600 of 0.005 in a final volume of 100 μl. The plates were put in an airtight container with moist paper towels and incubated for 4 d at 30° C. The cultures in the wells were resuspended before OD600 was read in a BioTek Synergy 4 plate reader.
To start the validation process, the top 10 compounds with >90% growth inhibition were chose to perform a single-concentration assay, with and without clarithromycin. Finally, the inventors obtained 7 compounds that potentiated Clr efficacy.

[1] = system: M. abscessus ATCC 19977, M. abscessus strains M422 and M110; experiment: Checkerboard synergy assay, statements on all 3 M. abscessus strains; type: cell-based, Mycobacterium abscessus; settings: pre-induced M. abscessus strains (FIG. 4, Table 2)
Description: as §1
(§2) With Rfx identified as the best potentiator of Clr activity, the interaction between Rfx and Clr was investigated by a checkerboard synergy approach using a broth microdilution method performed in 96-well plates. To provide a classification of the combined antibiotics based on the fractional inhibitory concentration index (FICI), this assay applied the combination of Clr and Rfx in concentrations of 0-64 μg/ml by 2-fold serial dilutions along the abscissa and ordinate, respectively. The FICI was calculated by summing the FIC of Rfx and the FIC of Clr. FIC of Clr is the MIC of Clr in the presence of Rfx divided by MIC of Clr alone. FIC of Rfx was similarly calculated.
(§3) To characterize the interaction between Clr and Rfx, checkerboard synergy assays were performed on pre-induced Clr-resistant M. abscessus. The fractional inhibitory concentration index (FICI) obtained from the checkerboard assay defines whether the interaction between the two compounds is either synergistic (FICI≤0.5), additive (0.5<FICI≤1.0), indifferent (1.0<FICI≤4.0), or antagonistic (FICI >4.0) (Noel D J, Keevil C W, Wilks S A. 2021. MBio 12).

M. abscessus ATCC 19977 = experiment: Zebrafish embryo infection model; type: in vivo, zebrafish (Denio rerio); settings: Clr alone up to 74.8 μg/ml (100 μM), immersion for 4 days (FIG. 6A)
Excerpt: To visualize the bacterial infection in the zebrafish (Denio rerio), a fluorescent strain of M. abscessus ATCC 19977 containing pJKD2893:mScarlet was generated. The pJKD2893 plasmid backbone was a kind gift from Professor Timothy Stinear. The gene expressing the fluorescent protein mScarlet was amplified from μMRE135-mScarlet (Addgene #118489, Mitja Remus-Emsermann lab). The amplification product was annealed by Gibson cloning with the pJKD2893 backbone amplified from a sample of pJKD2893. The resulting plasmid, termed pJKD2893:mScarlet, was electroporated into M. abscessus ATCC 19977 at a culture density equivalent to OD600˜20 using a BioRad GenePulser Xcell set at 2.5 kV, 25 uF, and 1,000Ω. […] Colonies carrying the plasmid were identified by their fluorescence. […]
Preparation of M. abscessus Inoculum and Zebrafish Infections Cultures of M. abscessus-pJKD2893:mScarlet in 7H9 media supplemented with 50 μg/ml kanamycin were grown to OD600 of 0.2-0.3 and concentrated to OD600 of 1 in 0.1% PBS-Tween-20. […] The actual CFU in the inoculum was determined a posteriori by injecting into 50 μl 0.1% PBS-Tween-20 and streaking on a plate. […]
Larvae were harvested to assess the bacterial load at 5 d post-infection using a slightly modified version of the Kremer lab method (Bernut et al., Antimicrob Agents Chemother 58: 4054-4063). […] Fluorescent colonies were counted after 5-6 days. […]

[2] = system: M. avium ATCC 700898 (uninduced); experiment: Checkerboard synergy assay; type: cell-based, Mycobacterium avium; settings: Mycobacterium avium, ATCC700898; read-out: MIC90
Description: as §2
As both M. abscessus and M. avium are the main organism groups causing pulmonary NTM (Lim A Y H, et al., 2018. BMC Pulm Med 18 (1):85; Tan Y, et al., 2018. BMC Pulm Med 18 (1): 168), the inventors tested the combination of Clr and Rfx against M. avium in the checkerboard assay as well. With a FICI of 0.563, the interaction between Clr and Rfx was additive in M. avium.

[3] = system: M. abscessus ATCC 19977 (pre-induced); experiment: microbe, parasite or virus in culture; type: cell-based, Mycobacterium abscessus
Description: The FICI was calculated by summing the FIC of Rfx and the FIC of Clr. FIC of Clr is the MIC of Clr in the presence of Rfx divided by MIC of Clr alone. FIC of Rfx was similarly calculated.
as §3

[4] = clarithromycin 0 μg/ml, partner antibiotic 1 μg/ml
[5] = clarithromycin 0 μg/ml, partner antibiotic 2 μg/ml
[6] = clarithromycin 0 μg/ml, partner antibiotic 4 μg/ml
[7] = clarithromycin 0 μg/ml, partner antibiotic 8 μg/ml
[8] = clarithromycin 0 μg/ml, partner antibiotic 16 μg/ml
[9] = clarithromycin 0 μg/ml, partner antibiotic 32 μg/ml
[10] = clarithromycin 0 μg/ml, partner antibiotic 64 μg/ml

Compound | % inhibition with 0.5 μg/ml Clr (M. abscessus strain M422) | % inhibition with compound alone (M. abscessus strain M422) | Percentage of bacterial growth [3, 4] | Percentage of bacterial growth [3, 5] | Percentage of bacterial growth [3, 6] | Percentage of bacterial growth [3, 7] | Percentage of bacterial growth [3, 8] | Percentage of bacterial growth [3, 9] | Percentage of bacterial growth [3, 10] | further results
OB1OCc2cc(F)ccc21 [AN-2690] | 96.7% | 80.4% |  |  |  |  |  |  |  | 
CC(=O)OC[C@H]1O[C@@H]([S-])[C@H](OC(C)=O)[C@@H](OC(C)=O)[C@@H]1OC(C)=O.CCP(CC)CC.[Au+] [Auranofin] | 98.5% | 86.9% |  |  |  |  |  |  |  | 
CO/N=C(\C(=O)N[C@@H]1C(=O)N2C(C(=O)O)=C(COC(C)=O)CS[C@H]12)c1csc(N)n1 [Cefotaxime (sodium salt), Cefotaxime] | 98.5% | 86.7% |  |  |  |  |  |  |  | 
CC[C@H]1OC(=O)[C@H](C)[C@@H](O[C@H]2C[C@@](C)(OC)[C@@H](O)[C@H](C)O2)[C@H](C)[C@@H](O[C@@H]2O[C@H](C)C[C@H](N(C)C)[C@H]2O)[C@](C)(OC)C[C@@H](C)C(=O)[C@H](C)[C@@H](O)[C@]1(C)O [Clarithromycin, clarithromycin] |  |  |  |  |  |  |  |  |  | reduction of the MIC of Clr when used in combination with Rfx [1]: at least 16 fold; effect on bacterial load (M. abscessus ATCC 19977): unable to reduce bacterial load; MIC90 [2]: < 0.1 µg/mL; Percentage of bacterial growth ([3]; clarithromycin 1 μg/ml, partner antibiotic 0 μg/ml): 80.1% and 116.9% and 119.5% and 108.3% and 97.8% and 90.2% and 95.5%; Percentage of bacterial growth ([3]; clarithromycin 2 μg/ml, partner antibiotic 0 μg/ml): 80.6% and 99.5% and 102.2% and 98.9% and 80.2% and 84.8% and 96.8%; Percentage of bacterial growth ([3]; clarithromycin 4 μg/ml, partner antibiotic 0 μg/ml): 86.2% and 113.2% and 103.4% and 117.2% and 82.7% and 78.4% and 93.3%; Percentage of bacterial growth ([3]; clarithromycin 8 μg/ml, partner antibiotic 0 μg/ml): 76.2% and 102.8% and 93.2% and 108.1% and 71.4% and 97.4% and 92.9%; Percentage of bacterial growth ([3]; clarithromycin 16 μg/ml, partner antibiotic 0 μg/ml): 64.0% and 109.5% and 86.1% and 101.8% and 72.3% and 89.6% and 89.7%; Percentage of bacterial growth ([3]; clarithromycin 32 μg/ml, partner antibiotic 0 μg/ml): 77.4% and 84.3% and 83.8% and 115.7% and 59.0% and 98.2% and 95.4%
CO[C@@H]1[C@@H](OC(N)=O)[C@@H](O)[C@H](Oc2ccc3c(O)c(NC(=O)c4ccc(O)c(CC=C(C)C)c4)c(=O)oc3c2C)OC1(C)C [Novobiocin (Sodium), Novobiocin] | 99.7% | 84.1% |  |  |  |  |  |  |  | 
CC(=O)NC[C@H]1CN(c2ccc(N3CCSCC3)c(F)c2)C(=O)O1 [Sutezolid] | 92.8% | 80.4% |  |  |  |  |  |  |  | 
Cn1nnc(-c2ccc(-c3ccc(N4C[C@H](CO)OC4=O)cc3F)cn2)n1 [Tedizolid] | 99.1% | 85.2% |  |  |  |  |  |  |  | 
C[C@@H](O)[C@H]1C(=O)N2C(C(=O)O)=C(SCCN=CN)C[C@H]12 [imipenem] |  |  | 86.9% | 93.4% | 58.5% | 78.5% | 62.1% | 38.3% | 16.6% | 
COc1c(N2C[C@@H]3CCCN[C@@H]3C2)c(F)cc2c(=O)c(C(=O)O)cn(C3CC3)c12 [moxifloxacin] |  |  | 107.8% | 122.8% | 86.4% | 51.2% | 13.4% | 7.4% | 0.6% | 
CN(C)c1cc(NC(=O)CNC(C)(C)C)c(O)c2c1C[C@H]1C[C@H]3[C@H](N(C)C)C(O)=C(C(N)=O)C(=O)[C@@]3(O)C(O)=C1C2=O [tigecycline] |  |  | 64.2% | 74.2% | 77.8% | 67.0% | 39.3% | 22.4% | 10.1% | concentration at which synergistic effects with clarithromycin are exhibited ([3]; Table 3): ≥ 16 µg/mL; FICI ([3]; clarithromycin with a known partner antibiotic, each 0-64 μg/ml): 0.25
CN[C@H](CC(C)C)C(=O)N[C@H]1C(=O)N[C@@H](CC(N)=O)C(=O)N[C@H]2C(=O)N[C@H]3C(=O)N[C@H](C(=O)N[C@H](C(=O)O)c4cc(O)cc(O)c4-c4cc3ccc4O)[C@H](O)c3ccc(c(Cl)c3)Oc3cc2cc(c3O[C@@H]2O[C@H](CO)[C@@H](O)[C@H](O)[C@H]2O[C@H]2C[C@](C)(N)[C@H](O)[C@H](C)O2)Oc2ccc(cc2Cl)[C@H]1O [vancomycin] |  |  | 103.7% | 102.0% | 105.7% | 91.7% | 90.8% | 86.6% | 83.1% | 
oritavancin diphosphate |  |  | 68.0% | 59.1% | 51.1% | 46.8% | 40.9% | 32.2% | 26.1% | 
